Reference: patent US8785637B2, “Carboxamide-substituted dyes for analytical applications” (ATTO-TEC GmbH, priority 2002, dated 2014)

Test: Solubility in water
Format: physicochemical
Settings: sugar residue as R5 or/and R6

solubility in water: high solubility in water
Structure (SMILES): CCN(CC)c1ccc2c(-c3ccccc3C(=O)N(C)CC(O)C(O)C(O)C(O)CO)c3ccc(=[N+](CC)CC)cc-3oc2c1 (stereo not shown) [Compound 51]
